Experimental data: patent publication US5340929A, “Trisazo dye and dye composition containing the same” (Orient Chemical Industries, Ltd., priority 1992, dated 1994)
Like-named read-outs stand apart in the source and are kept apart here.

Columns and labels:
[1] = prior art statement, background; cited from earlier work
[2] = prior art statement, background; cited from earlier work; remark: listed apart in the source
strains TA98 [3] = conditions: cited from earlier work
[4] = Water resistance of writing (drawdown paper dipped in tap water, reflection density); format: physicochemical; conditions: drawndown paper, 3% dye solution, air-dried one day
Experimental: Light resistance: The resulting dye was dissolved in a 5% aqueous diethylene glycol solution to obtain a 3% dye solution. […] A degree of discoloration was compared with that before testing.
Water resistance: The drawndown paper was air-dried for one day and dipped in tap water.
A: Reflection density is more than 70% of that before testing.
B: Reflection density is 50 to 70% of that before testing.
C: Reflection density is less than 50% that before testing.

Hue of dye / writing = format: physicochemical
strains TA98 [5] = format: cell-based
Experimental: Further, the trisazo dye of the present invention is a nontoxic trisazo dye which gives negative results in a back mutation test using an organism, which is generally known as a test method for evaluating toxicity, i.e. AMES test (mutation test).
Evaluation method of Ames test
Regarding various specimen solutions respectively containing a trisazo dyes obtained in Examples 1 to 8 of the present invention and dyes of Comparative Examples 1 to 3, the number of mutant colonies was determined using strains TA98. 2. When the ratio is less than 2, it is "negative" and, when the ratio is more than 2, it is "positive", and the results are shown in Table. 1.

Row | SMILES | Light resistance of aqueous ink [1] | Water resistance of aqueous ink [2] | Ames test result (strains TA98 [3]) | Writing evaluation: Water resistance [4] | Hue (Hue of dye / writing) | Hue (Hue of dye / writing; listed as Comp. Example 2) | Ames test: ratio of the number of colonies to control (strains TA98 [5]; TA98, S-9 (+), 20 μg/plate) | Ames test: ratio of the number of colonies to control (strains TA98 [5]; TA98, S-9 (+), 78 μg/plate) | Ames test: ratio of the number of colonies to control (strains TA98 [5]; TA98, S-9 (+), 313 μg/plate) | Ames test: ratio of the number of colonies to control (strains TA98 [5]; TA98, S-9 (+), 1250 μg/plate) | Ames test: ratio of the number of colonies to control (strains TA98 [5]; TA98, S-9 (+), 5000 μg/plate) | Ames test: ratio of the number of colonies to control (strains TA98 [5]; TA98, S-9 (-), 20 μg/plate) | Ames test: ratio of the number of colonies to control (strains TA98 [5]; TA98, S-9 (-), 78 μg/plate) | Ames test: ratio of the number of colonies to control (strains TA98 [5]; TA98, S-9 (-), 313 μg/plate) | Ames test: ratio of the number of colonies to control (strains TA98 [5]; TA98, S-9 (-), 1250 μg/plate) | Ames test: ratio of the number of colonies to control (strains TA98 [5]; TA98, S-9 (-), 5000 μg/plate) | Ames test result (strains TA98 [3]; prior art statement, background) | Hue (Hue of dye / writing; listed as Comp. Example 3)
1 | Nc1cc2c(O)c(N=Nc3ccc(N=Nc4ccc(S(=O)(=O)[O-])cc4)c4ccc(S(=O)(=O)[O-])cc34)c(S(=O)(=O)[O-])cc2cc1S(=O)(=O)[O-].[Na+].[Na+].[Na+].[Na+] [Food Black 2] | poor | poor | – | – | – | – | – | – | – | – | – | – | – | – | – | – | – | –
2 | Nc1ccc(N=Nc2ccc(N=Nc3c(S(=O)(=O)[O-])cc4cc(S(=O)(=O)[O-])c(N=Nc5ccc(N=Nc6ccc(N)cc6N)cc5)c(O)c4c3N)cc2)c(N)c1.[Na+].[Na+] [compound 2, C.I. Direct Black 19, reference compound] | – | – | false positive or positive | A (Reflection density is more than 70% of that before testing.) | Yellowish | yellowish black | 8.33 | 24.2 | 75.0 | 52.8 | 4.00 | 0.92 | 0.88 | 1.48 | 2.24 | 2.84 | – | –
3 | Cc1cc(-c2ccc(N=Nc3c(S(=O)(=O)[O-])cc4cc(S(=O)(=O)[O-])c(N=Nc5ccccc5)c(O)c4c3N)c(C)c2)ccc1N=Nc1ccc(N)cc1N.[Na+].[Na+] [compound 3, C.I. Direct Black 154, reference compound] | – | – | – | B (Reflection density is 50 to 70% of that before testing.) | Greenish | – | 1.92 | 2.35 | 2.50 | 1.50 | 0.85 | 0.72 | 0.68 | 0.84 | 0.76 | 0.96 | false positive or positive | greenish black
